In patent publication US8017606B2, “Quinoline derivatives as antibacterial agents” (Janssen Pharmaceutica NV, priority 2005, dated 2011):
Converted amounts (≈) assume the structure as drawn.

Legend:
Assay in all cases: Microtitre plate assay, IC90 determination
Assay type in all cases: cell-based
[1] = test system: Enterococcus faecalis (ATCC29212); settings: 90% inhibitory concentration for bacterial growth, 37° C., resazurin fluorescence, read-out: IC90 (μg/ml) EFA 29212
Description: (§1) The bacteria used in this study were grown overnight in flasks containing 100 ml Mueller-Hinton Broth (Becton Dickinson—cat. no. 275730) in sterile de-ionized water, with shaking, at 37° C. Stocks (0.5 ml/tube) were stored at −70° C. until use. Bacteria titrations were performed in microtiter plates and colony forming units (CFUs) were determined. In general, an inoculum level of approximately 100 CFUs was used for susceptibility testing.
(§2) Anti Bacterial Susceptibility Testing: IC90 Determination
(§3) Flat-bottom, sterile 96-well plastic microtiter plates were filled with 180 μl of sterile deionized water, supplemented with 0.25% BSA. Subsequently, stock solutions (7.8×final test concentration) of compounds were added in 45 μl volumes in column 2 Serial five-fold dilutions (45 μl in 180 μl) were made directly in the microtiter plates from column 2 to reach column 11. Untreated control samples with (column 1) and without (column 12) inoculum were included in each microtiter plate. Depending on the bacteria type, approximately 10 to 60 CFU per well of bacteria inoculum (100 TCID50), in a volume of 100 μl in 2.8× Mueller-Hinton broth medium, was added to the rows A to H, except column 12. The same volume of broth medium without inoculum was added to column 12 in row A to H. The cultures were incubated at 37° C. for 24 hours under a normal atmosphere (incubator with open air valve and continuous ventilation). At the end of incubation, one day after inoculation, the bacterial growth was quantitated fluorometrically. Therefore resazurin (0.6 mg/ml) was added in a volume of 20 μl to all wells […], and the plates were re-incubated overnight. A change in colour from blue to pink indicated the growth of bacteria.
(§4) The fluorescence was read in a computer-controlled fluorometer (Cytofluor Biosearch) at an excitation wavelength of 530 nm and an emission wavelength of 590 nm. The % growth inhibition achieved by the compounds was calculated according to standard methods. The IC90 (expressed in μg/ml) was defined as the 90% inhibitory concentration for bacterial growth.

[2] = test system: methicilline resistant Staphylococcus aureus (MRSA) (a clinical isolate from the University of Antwerp); settings: 90% inhibitory concentration for bacterial growth, 37° C., resazurin fluorescence, read-out: IC90 (μg/ml) STA RMETHIC
Description: as §1, §2, §3, §4

[3] = test system: Staphylococcus aureus (ATCC29213); settings: 90% inhibitory concentration for bacterial growth, 37° C., resazurin fluorescence, read-out: IC90 (μg/ml) STA 29213
Description: as §1, §2, §3, §4

[4] = test system: Streptococcus pneumoniae (ATCC6305); settings: 90% inhibitory concentration for bacterial growth, 37° C., resazurin fluorescence, read-out: IC90 (μg/ml) SPN 6305
Description: as §1, §2, §3, §4

[5] = test system: Staphylococcus aureus (ATCC25923); settings: 90% inhibitory concentration for bacterial growth, 37° C., resazurin fluorescence, read-out: IC90 (μg/ml) STA 25923
Description: as §1, §2, §3, §4

[6] = test system: Listeria monocytogenes (ATCC49594); settings: 90% inhibitory concentration for bacterial growth, 37° C., resazurin fluorescence, read-out: IC90 (μg/ml) LMO 49594
Description: as §1, §2, §3, §4

[7] = test system: Bacillus subtilis (ATCC43639); settings: 90% inhibitory concentration for bacterial growth, 37° C., resazurin fluorescence, read-out: IC90 (μg/ml) BSU 43639
Description: as §1, §2, §3, §4

[8] = test system: Pseudomonas aeruginosa (ATCC27853); settings: 90% inhibitory concentration for bacterial growth, 37° C., resazurin fluorescence, read-out: IC90 (μg/ml) PAE 27853
Description: as §1, §2, §3, §4

[9] = test system: Streptococcus pyogens (ATCC8668); settings: 90% inhibitory concentration for bacterial growth, 37° C., resazurin fluorescence, read-out: IC90 (μg/ml) SPY 8668
Description: as §1, §2, §3, §4

[10] = test system: Streptococcus mutans (ATCC33402); settings: 90% inhibitory concentration for bacterial growth, 37° C., resazurin fluorescence, read-out: IC90 (μg/ml) SMU 33402
Description: as §1, §2, §3, §4

[11] = test system: Enterococcus faecalis (ATCC14506); settings: 90% inhibitory concentration for bacterial growth, 37° C., resazurin fluorescence, read-out: IC90 (μg/ml) EFA 14506
Description: as §1, §2, §3, §4

Compound	IC90 [1] [µg/mL]	IC90 [3] [µg/mL]	IC90 [4] [µg/mL]	IC90 [5] [µg/mL]	IC90 [6] [µg/mL]	IC90 [7] [µg/mL]	IC90 [8] [µg/mL]	IC90 [9] [µg/mL]	IC90 [10] [µg/mL]	IC90 [11] [µg/mL]	IC90 [2] [µg/mL]
CN(C)CCC(O)(c1cc(F)cc(F)c1)c1ccc2nc(-c3cccnc3)cc(-c3ccccc3)c2c1 (stereo not shown) [Compound 42]	12.5 (≈ 25.2 µM)	39.4 (≈ 79.5 µM)	12.5 (≈ 25.2 µM)	9.9 (≈ 20 µM)	39.4 (≈ 79.5 µM)	12.5 (≈ 25.2 µM)	12.5 (≈ 25.2 µM)	12.5 (≈ 25.2 µM)			49.6 (≈ 100 µM)
CC(=O)c1ccc(N2CCN(c3nc4c(C(O)(CCN(C)C)c5ccccc5)cc(Br)cc4cc3Cc3ccccc3)CC2)cc1 (stereo not shown) [Compound 54]	17 (≈ 25.1 µM)	17 (≈ 25.1 µM)	17 (≈ 25.1 µM)				17 (≈ 25.1 µM)	17 (≈ 25.1 µM)	17 (≈ 25.1 µM)		
CN(C)CCC(O)(c1ccccc1)c1ccc2nc(-c3cccnc3)cc(-c3ccccc3)c2c1 (stereo not shown) [Compound 43]	11.5 (≈ 25 µM)	11.5 (≈ 25 µM)	11.5 (≈ 25 µM)				11.5 (≈ 25 µM)	11.5 (≈ 25 µM)			
CN(C)CCC(O)(c1ccccc1)c1ccc2nc(N(C)C)cc(-c3ccccc3)c2c1 (stereo not shown) [Compound 47]	10.7 (≈ 25.1 µM)	10.7 (≈ 25.1 µM)	10.7 (≈ 25.1 µM)	10.7 (≈ 25.1 µM)	10.7 (≈ 25.1 µM)	10.7 (≈ 25.1 µM)	10.7 (≈ 25.1 µM)	10.7 (≈ 25.1 µM)			10.7 (≈ 25.1 µM)
COc1nc2c(C(O)(CCN(C)C)c3cc(F)cc(F)c3)cc(-c3cccnc3)cc2cc1-c1ccccc1 (stereo not shown) [Compound 64]	13.2 (≈ 25.1 µM)	8.3 (≈ 15.8 µM)	10.5 (≈ 20 µM)	6.6 (≈ 12.6 µM)	13.2 (≈ 25.1 µM)	8.3 (≈ 15.8 µM)	13.2 (≈ 25.1 µM)	2.1 (≈ 4 µM)	2.1 (≈ 4 µM)	10.5 (≈ 20 µM)	11.8 (≈ 22.5 µM)

More lines, main results first:

IC90 [1] [µg/mL]	IC90 [3] [µg/mL]	IC90 [4] [µg/mL]	IC90 [5] [µg/mL]	IC90 [6] [µg/mL]	IC90 [7] [µg/mL]	IC90 [8] [µg/mL]	IC90 [9] [µg/mL]	IC90 [10] [µg/mL]	IC90 [11] [µg/mL]	Compound	IC90 [2] [µg/mL]
10.4 (≈ 25.1 µM)	10.4 (≈ 25.1 µM)	10.4 (≈ 25.1 µM)	10.4 (≈ 25.1 µM)	10.4 (≈ 25.1 µM)	10.4 (≈ 25.1 µM)	10.4 (≈ 25.1 µM)	10.4 (≈ 25.1 µM)			COc1cc(-c2ccccc2)c2cc(C(O)(CCN(C)C)c3ccccn3)ccc2n1 (stereo not shown) [Compound 16]	10.4 (≈ 25.1 µM)
11.3 (≈ 25.2 µM)	11.3 (≈ 25.2 µM)	11.3 (≈ 25.2 µM)	11.3 (≈ 25.2 µM)	11.3 (≈ 25.2 µM)	11.3 (≈ 25.2 µM)	11.3 (≈ 25.2 µM)	9 (≈ 20.1 µM)			COc1cc(-c2ccccc2)c2cc(C(O)(CCN(C)C)c3cc(F)cc(F)c3)ccc2n1 (stereo not shown) [Compound 11]	11.3 (≈ 25.2 µM)
12.1 (≈ 25.1 µM)	12.1 (≈ 25.1 µM)	10.8 (≈ 22.4 µM)	12.1 (≈ 25.1 µM)	12.1 (≈ 25.1 µM)	12.1 (≈ 25.1 µM)	12.1 (≈ 25.1 µM)	12.1 (≈ 25.1 µM)			COc1nc2c(C(O)(CCN(C)C)c3ccco3)cc(Br)cc2cc1-c1ccccc1 (stereo not shown) [Compound 13]	12.1 (≈ 25.1 µM)
10.1 (≈ 25.1 µM)	10.1 (≈ 25.1 µM)	10.1 (≈ 25.1 µM)	10.1 (≈ 25.1 µM)	10.1 (≈ 25.1 µM)	10.1 (≈ 25.1 µM)	10.1 (≈ 25.1 µM)	10.1 (≈ 25.1 µM)			COc1nc2cccc(C(O)(CCN(C)C)c3ccco3)c2cc1-c1ccccc1 (stereo not shown) [Compound 5]	9 (≈ 22.4 µM)
11.3 (≈ 25.1 µM)	11.3 (≈ 25.1 µM)	11.3 (≈ 25.1 µM)	11.3 (≈ 25.1 µM)	11.3 (≈ 25.1 µM)	11.3 (≈ 25.1 µM)	11.3 (≈ 25.1 µM)	11.3 (≈ 25.1 µM)			CN(C)CCC(O)(c1ccc2nc(-c3cccnc3)cc(-c3ccccc3)c2c1)c1ccco1 (stereo not shown) [Compound 44]	11.3 (≈ 25.1 µM)
